“Also recorded” adds a separate entry of the source.
System: Male Crl:CD-1 (ICR) BR mice
Test: Radiant heat tail-flick assay after topical drug application to the tail
Format: in vivo
Settings: for analgesia in % of mice: alone or together, 2 min; for time of maximal analgesic effect after topical application / topical analgesic effect (in words) / duration of analgesia: single drug; for duration of analgesia: FIG. 6: S-ibuprofen 4.8 mmol, diclofenac 3.5 mmol, 2 min exposure; for time of maximal analgesic effect after topical application / topical analgesic effect (in words) / ED 50 value, propylene glycol alone / ED 50 value, propylene glycol and lauric acid: topical; for ED 50 value, propylene glycol alone / ED 50 value, propylene glycol and lauric acid: tail immersed 2 min, tested immediately afterward; for ED 50 value, propylene glycol alone: vehicle propylene glycol alone; for ED 50 value, propylene glycol and lauric acid: vehicle propylene glycol and lauric acid (10:1)
Description: All in vivo studies were carried out in accordance with the Declaration of Helsinki and with the Guide for Care and Use of Laboratory Animals, as adopted and promulgated by the Estonian Põllumajandusministeerium. Male Crl:CD-1® (ICR) BR mice (20-25 g) were purchased from Charles River Laboratories (Germany) and were housed in a 12:12-h light-dark cycle temperature-controlled room with food and water freely available. Drugs were obtained from Sigma (St. Louis, Mo., USA). […] Briefly, the distal portion of the tail (2-3 cm) was immersed in a propylene glycol/dH2O (10:1 ratio) alone or propylene glycol and lauric acid combination (10:1) solution containing the indicated drugs for the stated time, usually 2 min.). Analgesia was defined quantitatively as tail-flick latency for an individual animal that was twice its baseline latency or greater using tail flick apparatus (Ugo Basile, Italy). […] ED50 values were determined with GraphPad Software.

[1] = FIG. 10A: methadone 0.7 mmol, S-ibuprofen 1.2 mmol
[2] = FIG. 11B: hydrocodone 0.6 mmol, S-ibuprofen 1.2 mmol
[3] = FIG. 7A: morphine 0.15 mmol, diclofenac 0.9 mmol
[4] = FIG. 9A: methadone 0.7 mmol, diclofenac 0.9 mmol

Row | Structure (SMILES) | analgesia in % of mice [1] [%] | analgesia in % of mice [2] [%] | time of maximal analgesic effect after topical application [min] | topical analgesic effect (in words) | duration of analgesia [min] | ED 50 value, propylene glycol alone [mmol] | ED 50 value, propylene glycol and lauric acid [mmol] | analgesia in % of mice [3] [%] | analgesia in % of mice [4] [%] | dose response shift to left of ED50 on addition of lauric acid to propylene glycol [fold]
1 | CC(C)Cc1ccc([C@H](C)C(=O)O)cc1 [S-ibuprofen] | 30 | 30 | 2 | dose dependent analgesia | 90 | 9.3 | 2.1 | – | – | –
2 | CCN(CC)CC(=O)Nc1c(C)cccc1C [Lidocaine, lidocaine] | – | – | – | no differences in ED50; also recorded: significant and long acting analgesic effects | – | 2.2 | – | – | – | –
3 | O=C(O)Cc1ccccc1Nc1c(Cl)cccc1Cl [Diclofenac, diclofenac] | – | – | 2 | dose dependent analgesia | 90 | 3.3 | 1.1 | 30 | 30 | –
4 | COc1ccc2c3c1O[C@H]1C(=O)CC[C@H]4[C@@H](C2)N(C)CC[C@]314 [Hydrocodone, hydrocodone] | – | 20 | – | most potent analgesic activity; also recorded: dose dependent response | – | 1.6 | 1.2 | – | – | –
5 | CN1CC[C@]23c4c5ccc(O)c4O[C@H]2[C@@H](O)C=C[C@H]3[C@H]1C5 [Morphine, morphine] | – | – | – | – | – | 7.6 | – | 20 | – | –
6 | CCC(=O)C(CC(C)N(C)C)(c1ccccc1)c1ccccc1 (stereo not shown) [Methadone, methadone] | 25 | – | – | dose dependent (FIG. 4A) and naloxone sensitive | – | 6.7 | 1.0 | – | 30 | 6.7
